From US20260042727A1, “COMPLEX OF 3-HYDROXY-3-METHYLBUTYRIC ACID AND SALT THEREOF, AND PREPARATION METHOD THEREFOR” (NANJING NUTRABUILDING BIO-TECH CO., LTD., priority 2023, published 2026)

Legend:
[1] = Solubility of 3-hydroxy-3-methylbutyrate salts and complexes; format: physicochemical
From the text: The solubility of various 3-hydroxy-3-methylbutyrate salts and the complexes of Examples was each determined.

[2] = Stability (moisture content) at 23° C. and 92.5% humidity; format: physicochemical; settings: temperature 23° C., humidity 92.5%
Procedure: The stability of various 3-hydroxy-3-methylbutyrate salts and the complexes of the present disclosure was each measured at 23° C. and 92.5% humidity, and the results are shown in Table 7.

Molecule | Solubility [1] [g/100] | moisture content ([2]; 30 min) [%] | moisture content ([2]; 1 h) [%] | moisture content ([2]; 2 h) [%] | moisture content ([2]; 4 h) [%] | moisture content ([2]; 6 h) [%] | moisture content ([2]; 7 h) [%] | moisture content ([2]; 11 h) [%] | moisture content ([2]; 22 h) [%]
magnesium 3-hydroxy-3-methylbutyrate [reference compound] | 6 | 0.11 | 0.23 | 0.38 | 0.70 | 0.81 | 0.91 | 1.10 | 1.92
CC(C)(O)CC(=O)O [HMB-Ca complex, 3-hydroxy-3-methylbutyric acid·calcium 3-hydroxy-3-methylbutyrate complex] | 32 | 0.14 | 0.29 | 0.47 | 0.87 | 1.02 | 1.13 | 1.37 | 2.40
CC(C)(O)CC(=O)O [HMB-Na complex, 3-hydroxy-3-methylbutyric acid·sodium 3-hydroxy-3-methylbutyrate complex] | 135 | 0.22 | 0.46 | 0.75 | 1.39 | 1.62 | 1.81 | 2.19 | 3.83
CC(C)(O)CC(=O)O [HMB-K complex, 3-hydroxy-3-methylbutyric acid·potassium 3-hydroxy-3-methylbutyrate complex] | 225 | 0.29 | 0.59 | 0.97 | 1.80 | 2.11 | 2.35 | 2.85 | 4.98
calcium 3-hydroxy-3-methylbutyrate [reference compound] |  | 0.19 | 0.38 | 0.63 | 1.16 | 1.36 | 1.51 | 1.83 | 3.20
CC(C)(O)CC(=O)[O-].[K+] [potassium 3-hydroxy-3-methylbutyrate, reference compound] | 101.1 | 0.42 | 0.85 | 1.39 | 2.57 | 3.02 | 3.35 | 4.07 | 7.11
CC(C)(O)CC(=O)[O-].[Na+] [sodium 3-hydroxy-3-methylbutyrate, reference compound] | 72.9 | 0.32 | 0.65 | 1.07 | 1.98 | 2.32 | 2.58 | 3.13 | 5.47
